Measurements from the OPERA property sets (Mansouri et al. 2018).

| Structure (SMILES) | logP |
| --- | --- |
| COC1C(OC(C)=O)CC(=O)OC(C)CC2OC2C=CC(=O)C(C)CC(CC=O)C1OC1OC(C)C(O)C(N(C)C)C1O (stereo not given) | 0.3 |
| CC[C@H]1OC(=O)C[C@@H](O)[C@H](C)[C@@H](O[C@@H]2O[C@H](C)[C@@H](O[C@H]3C[C@@](C)(O)[C@@H](O)[C@H](C)O3)[C@H](N(C)C)[C@H]2O)[C@@H](CC=O)C[C@@H](C)C(=O)C=CC(C)=CC1CO[C@@H]1O[C@H](C)[C@@H](O)[C@@H](OC)[C@H]1OC (stereo not given in full) | 1.63 |
| CO[C@H]1C[C@H](O[C@H]2[C@H](C)[C@@H](O[C@@H]3O[C@H](C)C[C@H](N(C)C)[C@H]3O)[C@@H](C)C[C@]3(CO3)C(=O)[C@H](C)[C@@H](O)[C@@H](C)[C@@H](C)OC(=O)[C@@H]2C)O[C@@H](C)[C@@H]1O | 1.69 |
| CCC1OC(=O)C(C)C(OC2CC(C)(OC)C(O)C(C)O2)C(C)C(OC2OC(C)CC(N(C)C)C2O)C(C)(O)CC(C)C(N)C(C)C2OC(=O)OC12C (stereo not given) | 2.92 |

Other lines, results leading:

| logP | Structure (SMILES) |
| --- | --- |
| 0.99 | CCC1OC(=O)CC(O)C(C)C(OC2OC(C)C(O)C(N(C)C)C2O)C(CC=O)CC(C)C(=O)C=CC(C)=CC1CO (stereo not given) |
| 2.19 | CCC1OC(=O)C[C@@H](O)[C@H](C)[C@@H](O[C@@H]2O[C@H](C)C[C@H](N(C)C)[C@H]2O)[C@@H](CC=O)C[C@@H](C)C(=O)C=C[C@]2(C)OC2C1C (stereo not given in full) |
| 3.06 | CC[C@H]1OC(=O)[C@H](C)[C@@H](O[C@H]2C[C@@](C)(OC)[C@@H](O)[C@H](C)O2)[C@H](C)[C@@H](O[C@@H]2O[C@H](C)C[C@H](N(C)C)[C@H]2O)[C@](C)(O)C[C@@H](C)C(=O)[C@H](C)[C@@H](O)[C@]1(C)O |
| 3.04 | CO[C@@H]1[C@@H](O[C@@H]2O[C@H](C)[C@@H](O[C@H]3C[C@@](C)(O)[C@@H](OC(=O)CC(C)C)[C@H](C)O3)[C@H](N(C)C)[C@H]2O)[C@@H](CC=O)C[C@@H](C)C(=O)C=CC2OC2C[C@@H](C)OC(=O)C[C@H]1OC(C)=O (stereo not given in full) |
| 3.8 | CC[C@H]1OC(=O)C[C@@H](O)[C@H](C)[C@@H](O[C@@H]2O[C@H](C)[C@@H](O)[C@H](N(C)C)[C@H]2O)[C@@H](CCN2C[C@H](C)C[C@H](C)C2)C[C@@H](C)C(=O)C=CC(C)=C[C@@H]1CO[C@@H]1O[C@H](C)[C@@H](O)[C@@H](OC)[C@H]1OC |
| 4.02 | CC[C@H]1OC(=O)[C@H](C)[C@@H](O[C@H]2C[C@@](C)(OC)[C@@H](O)[C@H](C)O2)[C@H](C)[C@@H](O[C@@H]2O[C@H](C)C[C@H](N(C)C)[C@H]2O)[C@](C)(O)C[C@@H](C)CN(C)[C@H](C)[C@@H](O)[C@]1(C)O |
